From ChEMBL document CHEMBL1143710, “Synthesis, antifungal and antimicrobial activity of alkylphospholipids” (Bioorg Med Chem, 2007)
Converted amounts (≈) assume the structure as drawn. The source made the active and inactive calls. No cut-off for these calls is given here.

What was measured:
[1] = Toxicity assessed as haemolytic activity against human erythrocytes at 175 uM; type: cell-based, Erythrocyte; settings: read-out: Activity
[2] = Toxicity assessed as haemolytic activity against human erythrocytes at 88 uM; type: cell-based, Erythrocyte; settings: read-out: Activity
Escherichia coli = experiment: Antibacterial activity against Escherichia coli ATCC 25922 after 24 hrs; type: functional; settings: ATCC 25922, 24 h
[3] = Toxicity assessed as haemolytic activity against human erythrocytes at 3.5 uM; type: cell-based, Erythrocyte; settings: read-out: Activity
Candida albicans = experiment: Antifungal activity against Candida albicans ATCC 10231; type: functional
Cryptococcus neoformans = experiment: Antifungal activity against Cryptococcus neoformans ATCC 90112; type: functional
Staphylococcus aureus [4] = experiment: Antibacterial activity against methicillin-resistant Staphylococcus aureus after 24 hrs; type: functional
[5] = Toxicity assessed as haemolytic activity against human erythrocytes at 350 uM; type: cell-based, Erythrocyte; settings: read-out: Activity
[6] = Toxicity assessed as haemolytic activity against human erythrocytes at 44 uM; type: cell-based, Erythrocyte; settings: read-out: Activity
[7] = Toxicity assessed as haemolytic activity against human erythrocytes at 17.5 uM; type: cell-based, Erythrocyte; settings: read-out: Activity
Staphylococcus aureus [8] = experiment: Antibacterial activity against Staphylococcus aureus ATCC 25923 after 24 hrs; type: functional; settings: ATCC 25923, 24 h
Enterococcus = experiment: Antibacterial activity against vancomycin-resistant Enterococcus ATCC 51299 after 24 hrs; type: functional; settings: ATCC 51299, 24 h
[9] = molecular target: T1, Phospholipase B (Cryptococcus neoformans) (UniProt Q9P8P2); experiment: Inhibition of lysophosphatidic acid acyltransferase activity of Cryptococcus neoformans var. grubi H99 secreted PLB1 at 250 uM by radiometric assay method
T1 sequence (whole entry): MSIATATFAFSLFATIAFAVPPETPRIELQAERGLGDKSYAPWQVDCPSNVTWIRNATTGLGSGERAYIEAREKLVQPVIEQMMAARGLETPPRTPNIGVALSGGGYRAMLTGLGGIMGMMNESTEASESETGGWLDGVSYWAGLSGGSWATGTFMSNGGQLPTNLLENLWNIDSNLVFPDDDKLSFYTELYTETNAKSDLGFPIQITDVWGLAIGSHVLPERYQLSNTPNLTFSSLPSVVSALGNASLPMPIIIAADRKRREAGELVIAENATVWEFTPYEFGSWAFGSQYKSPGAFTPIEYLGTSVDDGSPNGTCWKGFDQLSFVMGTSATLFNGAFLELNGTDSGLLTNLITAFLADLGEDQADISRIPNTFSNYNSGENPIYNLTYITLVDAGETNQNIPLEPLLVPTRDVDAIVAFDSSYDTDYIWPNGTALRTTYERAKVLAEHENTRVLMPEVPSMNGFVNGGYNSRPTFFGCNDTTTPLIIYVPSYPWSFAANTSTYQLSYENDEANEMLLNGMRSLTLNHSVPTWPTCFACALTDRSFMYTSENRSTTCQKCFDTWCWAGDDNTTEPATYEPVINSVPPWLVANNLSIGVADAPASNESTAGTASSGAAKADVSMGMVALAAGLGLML

[10] = molecular target: T1, Phospholipase B (Cryptococcus neoformans); experiment: Inhibition of […] activity of Cryptococcus neoformans var. grubi H99 secreted PLB1 at 250 uM by radiometric assay method
[11] = molecular target: T1, Phospholipase B (Cryptococcus neoformans); experiment: Inhibition of […] activity of Cryptococcus neoformans var. grubi H99 secreted PLB1 at 25 uM by radiometric assay method
[12] = molecular target: T1, Phospholipase B (Cryptococcus neoformans); experiment: Inhibition of phospholipase B activity of Cryptococcus neoformans var. grubi H99 secreted PLB1 by radiometric assay method

| SMILES | hemolysis at 175 µM [1] [%] | hemolysis at 88 µM [2] [%] | MIC (Escherichia coli) [µM] | hemolysis at 3.5 µM [3] [%] | MIC (Candida albicans) [µM] | MIC (Cryptococcus neoformans) [µM] | MIC (Staphylococcus aureus [4]) [µM] | hemolysis at 350 µM [5] [%] | hemolysis at 44 µM [6] [%] | hemolysis at 17.5 µM [7] [%] | MIC (Staphylococcus aureus [8]) [µM] | MIC (Enterococcus) [µM] | Activity [9] | Activity [10] | Activity [11] | Activity [12] |
| --- | --- | --- | --- | --- | --- | --- | --- | --- | --- | --- | --- | --- | --- | --- | --- | --- |
| CCCCCCCC/C=C/CCCCCCCCOP(=O)([O-])OCC[N+](C)(C)C [ELAIDYLPHOSPHOCHOLINE] | 100 | 50 | > 350 | 0 | 2.75 (≈ 1.19 µg/mL) | 2.75 (≈ 1.19 µg/mL) | 22 (≈ 9.54 µg/mL) | 100 | 0 | 0 | 22 (≈ 9.54 µg/mL) | 22 (≈ 9.54 µg/mL) | – | – | – | – |
| CN[C@H](CC(C)C)C(=O)N[C@H]1C(=O)N[C@@H](CC(N)=O)C(=O)N[C@H]2C(=O)N[C@H]3C(=O)N[C@H](C(=O)N[C@H](C(=O)O)c4cc(O)cc(O)c4-c4cc3ccc4O)[C@H](O)c3ccc(c(Cl)c3)Oc3cc2cc(c3O[C@@H]2O[C@H](CO)[C@@H](O)[C@H](O)[C@H]2O[C@H]2C[C@](C)(N)[C@H](O)[C@H](C)O2)Oc2ccc(cc2Cl)[C@H]1O [VANCOMYCIN] | – | – | – | – | – | – | – | – | – | – | – | 0.7 (≈ 1.01 µg/mL) | – | – | – | – |
| CC1(C)S[C@@H]2[C@H](NC(=O)[C@H](N)c3ccc(O)cc3)C(=O)N2[C@H]1C(=O)O [AMOXICILLIN] | – | – | 22 (≈ 8.04 µg/mL) | – | – | – | – | – | – | – | 0.7 (≈ 0.256 µg/mL) | – | – | – | – | – |
| CCCCCCCCCCCCCCCCCCOP(=O)([O-])OCC[P+](C)(C)C | 100 | 97 | – | 0 | 2.75 (≈ 1.24 µg/mL) | 2.75 (≈ 1.24 µg/mL) | – | – | 40 | 2 | – | – | Active | Active | inactive | – |
| CC(C)[C@H](NC(=O)CCCCCOP(=O)([O-])OCC[N+](C)(C)C)C(N)=O | 0 | 0 | – | 0 | > 350 | > 350 | – | 0 | 0 | 0 | – | – | – | – | – | – |
| C[N+](C)(C)CCOP(=O)([O-])OCCCCCC(=O)NC12CC3CC(CC(C3)C1)C2 | – | – | – | – | > 350 | > 350 | – | – | – | – | – | – | – | – | – | – |
| CCCCCCCCCCCCOP(=O)([O-])OCC[N+](C)(C)C | 0 | 0 | – | 0 | 350 (≈ 123 µg/mL) | 175 (≈ 61.5 µg/mL) | – | – | 0 | 0 | – | – | – | – | inactive | inactive |
| CCCCCCCCCNC(=O)CCCCCOP(=O)([O-])OCC[N+](C)(C)C | 0 | 0 | > 350 | 0 | > 350 | > 350 | > 350 | – | 0 | 0 | > 350 | > 350 | – | – | inactive | inactive |
| CCCCCCCCCCCCCCCCCCOCC(COP(=O)([O-])OCC[N+](C)(C)C)OC (stereo not drawn) [EDELFOSINE] | 100 | 83 | > 350 | 0 | 5.5 (≈ 2.88 µg/mL) | > 350 | 11 (≈ 5.76 µg/mL) | 100 | 13 | 0 | 44 (≈ 23 µg/mL) | – | – | – | – | – |
